Measurements reported in patent US12491185B2, “Inhibitors of mPTP” (NRG Therapeutics Ltd, priority 2023, dated 2025).

Experiments:
[1] = test system: mPTP; assay: mPTP activity assay in isolated rat brain mitochondria; format: biochemical; settings: fluorescence at 10 min timepoint
Summary of the method: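 Fresh brain mitochondria from female Sprague Dawley rats, digitonin-washed, in pH 7.4 mannitol/MOPS/KCl buffer with pyruvate, malate, ADP, oligomycin A and 2 μM Fluo5N. Preincubated with compounds 10 min at RT. Fluo5N fluorescence then read every 3 sec for 10 min on FLIPR Tetra.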

[2] = test system: mPTP; assay: mPTP activity (Ca2+ retention) assay in isolated rat liver mitochondria; format: biochemical; settings: examples tested by different contract research organisations, believed comparable
Summary of the method: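 pIC50 was taken from Fluo5N fluorescence at 10 min after a 75 μM CaCl2 bolus, scaled between DMSO (0%) and 5 μM cyclosporin A (100%). Compounds, ten half-log concentrations from 30 μM to 1 nM final, sat 10 min at RT with fresh female Sprague Dawley rat liver mitochondria energized by succinate plus rotenone.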

SMILES | mPTP Rat brain pIC50 [1] | mPTP Rat liver pIC50 [2]
Cn1nc(C(=O)NCC2(Cc3cccc(F)c3)CCC2)[nH]c1=O [Example 84, N-((1-(3-Fluorobenzyl)cyclobutyl)methyl)-1-methyl-5-oxo-4,5-dihydro-1H-1,2,4-triazole-3-carboxamide] | 7.72 | 6.72
Cn1nc(C(=O)NCC2(Cc3ccc(F)cc3F)CCCC2)[nH]c1=O [Example 92, N-((1-(2,4-Difluorobenzyl)cyclopentyl)methyl)-1-methyl-5-oxo-4,5-dihydro-1H-1,2,4-triazole-3-carboxamide] | 7.54 | 6.31
Cn1nc(C(=O)NCC2(Cc3cccc(F)c3F)CCC2)[nH]c1=O [Example 95, N-((1-(2,3-Difluorobenzyl)cyclobutyl)methyl)-1-methyl-5-oxo-4,5-dihydro-1H-1,2,4-triazole-3-carboxamide] | 7.39 | 6.16
CC[C@H](CNC(=O)c1nn(C)c(=O)[nH]1)Cc1ccc(F)cc1F [Example 98, (S)—N-(2-(2,4-Difluorobenzyl)butyl)-1-methyl-5-oxo-4,5-dihydro-1H-1,2,4-triazole-3-carboxamide] | 7.78 | 6.59
Cn1nc(C(=O)NCC2(Cc3cccc(Br)c3)CCC2)[nH]c1=O [Example 99, N-((1-(3-Bromobenzyl)cyclobutyl)methyl)-1-methyl-5-oxo-4,5-dihydro-1H-1,2,4-triazole-3-carboxamide] | 7.68 | 5.89
Cn1nc(C(=O)NCC2(Cc3cccc(C#N)c3)CCC2)[nH]c1=O [Example 100, N-((1-(3-Cyanobenzyl)cyclobutyl)methyl)-1-methyl-5-oxo-4,5-dihydro-1H-1,2,4-triazole-3-carboxamide] | 6.32 | 5.99
Cn1nc(C(=O)NCC2(Cc3cc(F)cc(F)c3)CCC2)[nH]c1=O [Example 116, N-((1-(3,5-difluorobenzyl)cyclobutyl)methyl)-1-methyl-5-oxo-4,5-dihydro-1H-1,2,4-triazole-3-carboxamide] | 6.45 | 6.04
Cn1nc(C(=O)NCC2(Cc3ccc(F)cc3F)CCOCC2)[nH]c1=O [Example 121] | 7.1 | 6.67
Cc1cc(F)ccc1C[C@@H](CNC(=O)c1nn(C)c(=O)[nH]1)C1CC1 [Example 131] | 7.85 | 7.01
O=C(NCC1(Cc2ccc(F)cc2F)CCC1)c1c[nH]c(=O)cn1 [Example 132] | 7.31 | 6.08
O=C(NCC1(Cc2ccc(F)c(F)c2)CCC1)c1nccc(=O)[nH]1 [Example 133] | 7.5 | 6.51
Cn1nc(C(=O)NCC2(Cc3ccc(F)c(F)c3)CCC2)[nH]c1=O [Example 142, N-((1-(3,4-difluorobenzyl)cyclobutyl)methyl)-1-methyl-5-oxo-4,5-dihydro-1H-1,2,4-triazole-3-carboxamide] | 7.42 | 7.04
O=C(NCC1(Cc2cc(F)ccc2F)CCC1)c1nccc(=O)[nH]1 [Example 146] | 7.62 | 6.85
O=C(NC[C@H](Cc1ccc(F)cc1F)C1CC1)c1cncc(=O)[nH]1 [Example 149] | 7.07 | 6.32
Cn1nc(C(=O)NC[C@H](Cc2ccc(F)c(F)c2)C2CC2)[nH]c1=O [Example 150] | 7.61 | 7.08
O=C(NCC1(Cc2ccc(F)cc2F)CCCC1)c1cncc(=O)[nH]1 [Example 152] | 7.44 | 6.19
O=C(NC[C@H](Cc1cc(F)ccc1F)C1CC1)c1nccc(=O)[nH]1 [Example 153] | 7.12 | 6.22
Cn1nc(C(=O)NCC2(Cc3ccc(F)c(F)c3F)CCC2)[nH]c1=O [Example 156] | 7.24 | 6.28
Cn1nc(C(=O)NCC2(Cc3cc(F)c(F)cc3F)CCC2)[nH]c1=O [Example 157, 1-methyl-5-oxo-N-((1-(2,4,5-trifluorobenzyl)cyclobutyl)methyl)-4,5-dihydro-1H-1,2,4-triazole-3-carboxamide] | 7.81 | 7.03
Cn1nc(C(=O)NC[C@H](Cc2cc(F)ccc2F)C2CC2)[nH]c1=O [Example 159] | 7.77 | 6.97

SMILES | mPTP Rat brain pIC50 [1] | mPTP Rat liver pIC50 [2]
O=C(NCC1(Cc2ccc(F)cc2F)CCC1)c1nccc(=O)[nH]1 [Example 160] | 7.7 | 6.28
O=C(NCC1(Cc2cc(F)ccc2F)CCC1)c1cncc(=O)[nH]1 [Example 174] | 7.74 | 6.29
O=C(NCC1(Cc2ccc(F)cc2F)CCC1)c1ccc(=O)[nH]n1 [Example 175] | 6.81 | 5.92
O=C(NCC1(Cc2cccc(F)c2)CCC1)c1ccc(=O)[nH]n1 [Example 177] | 6.65 | 5.85
CSc1ccccc1CC1(CNC(=O)c2nn(C)c(=O)[nH]2)CCC1 [Example 181] | 6.91 | 5.66
CC[C@H](CNC(=O)c1nccc(=O)[nH]1)Cc1ccc(F)cc1F [Example 191] | 7.42 | 6.47
O=C(NC[C@H](Cc1ccc(F)cc1F)C1CC1)c1nncc(=O)[nH]1 [Example 195, (R)-N-(2-cyclopropyl-3-(2,4-difluorophenyl)propyl)-5-oxo-4,5-dihydro-1,2,4-triazine-3-carboxamide] | 7.43 | 6.37
O=C(NC[C@H](Cc1ccc(F)c(F)c1)C1CC1)c1noc(=O)[nH]1 [Example 203] | 7.66 | 6.48
O=C(NCC1(Cc2ccc(F)cc2F)CCC1)c1noc(=O)[nH]1 [Example 205] | 7.38 | 6.15
O=C(NC[C@H](Cc1cc(F)ccc1F)C1CC1)c1noc(=O)[nH]1 [Example 207] | 7.65 | 6.12
CC(c1ccc(F)cc1F)[C@@H](CNC(=O)c1nn(C)c(=O)[nH]1)C1CC1 (some centres unmarked) [Example 238] | 6.21 | 5.15
Cn1nc(C(=O)NC[C@H](Cc2ccc(F)cc2Cl)C2CC2)[nH]c1=O [Example 241, (R)-N-(3-(2-chloro-4-fluorophenyl)-2-cyclopropylpropyl)-1-methyl-5-oxo-4,5-dihydro-1H-1,2,4-triazole-3-carboxamide] | 7.73 | 6.81
Cn1nc(C(=O)NC[C@@H](Cc2ccc(F)cc2Cl)C2CC2)[nH]c1=O [Example 242] | 5.39 | 4.95
Cn1nc(C(=O)NC[C@H](Cc2ccc(F)cc2F)CC(F)(F)F)[nH]c1=O [Example 245, (R)-N-(2-(2,4-difluorobenzyl)-4,4,4-trifluorobutyl)-1-methyl-5-oxo-4,5-dihydro-1H-1,2,4-triazole-3-carboxamide] | 7.44 | 6.13
Cn1nc(C(=O)NC[C@@H](Cc2ccc(F)cc2F)CC(F)(F)F)[nH]c1=O [Example 246] | 5.85 | 4.56
C[C@@](CNC(=O)c1ncc(Cl)c(=O)[nH]1)(Cc1ccc(F)cc1F)C1CC1 [Example 259, 5-chloro-N-[(2R)-2-cyclopropyl-3-(2,4-difluorophenyl)-2-methylpropyl]-4-oxo-3H-pyrimidine-2-carboxamide] | 8.22 | 6.46
C[C@](CNC(=O)c1ncc(Cl)c(=O)[nH]1)(Cc1ccc(F)cc1F)C1CC1 [Example 260, 5-chloro-N-[(2S)-2-cyclopropyl-3-(2,4-difluorophenyl)-2-methylpropyl]-4-oxo-3H-pyrimidine-2-carboxamide] | 7.50 | 5.78
Cn1nc(C(=O)N2CCC(C)(c3ccccc3)C2)[nH]c1=O (centres unmarked) [Reference Example 101, 2-methyl-5-(3-methyl-3-phenylpyrrolidine-1-carbonyl)-2,4-dihydro-3H-1,2,4-triazol-3-one] | <4.52 | <4.57
Cn1nc(C(=O)N2CCC(c3ccccc3)CC2)[nH]c1=O [Reference Example 115, 2-methyl-5-(4-phenylpiperidine-1-carbonyl)-2,4-dihydro-3H-1,2,4-triazol-3-one] | <4.52 | <4.57
Cc1cnc(C(=O)NCC(C)(Cc2ccc(F)cc2F)C2CC2)[nH]c1=O (centres unmarked) [compound 266] | 7.04 | 5.95
